Laboratory results taken from US5807981A (FibroGen Inc., priority 1995, dated 1998).
Residues, ends and D or L forms follow the SMILES beside them.

Molecular target: T1, C-proteinase (Homo sapiens, UniProt P13497)
T1 sequence (P13497 121-986): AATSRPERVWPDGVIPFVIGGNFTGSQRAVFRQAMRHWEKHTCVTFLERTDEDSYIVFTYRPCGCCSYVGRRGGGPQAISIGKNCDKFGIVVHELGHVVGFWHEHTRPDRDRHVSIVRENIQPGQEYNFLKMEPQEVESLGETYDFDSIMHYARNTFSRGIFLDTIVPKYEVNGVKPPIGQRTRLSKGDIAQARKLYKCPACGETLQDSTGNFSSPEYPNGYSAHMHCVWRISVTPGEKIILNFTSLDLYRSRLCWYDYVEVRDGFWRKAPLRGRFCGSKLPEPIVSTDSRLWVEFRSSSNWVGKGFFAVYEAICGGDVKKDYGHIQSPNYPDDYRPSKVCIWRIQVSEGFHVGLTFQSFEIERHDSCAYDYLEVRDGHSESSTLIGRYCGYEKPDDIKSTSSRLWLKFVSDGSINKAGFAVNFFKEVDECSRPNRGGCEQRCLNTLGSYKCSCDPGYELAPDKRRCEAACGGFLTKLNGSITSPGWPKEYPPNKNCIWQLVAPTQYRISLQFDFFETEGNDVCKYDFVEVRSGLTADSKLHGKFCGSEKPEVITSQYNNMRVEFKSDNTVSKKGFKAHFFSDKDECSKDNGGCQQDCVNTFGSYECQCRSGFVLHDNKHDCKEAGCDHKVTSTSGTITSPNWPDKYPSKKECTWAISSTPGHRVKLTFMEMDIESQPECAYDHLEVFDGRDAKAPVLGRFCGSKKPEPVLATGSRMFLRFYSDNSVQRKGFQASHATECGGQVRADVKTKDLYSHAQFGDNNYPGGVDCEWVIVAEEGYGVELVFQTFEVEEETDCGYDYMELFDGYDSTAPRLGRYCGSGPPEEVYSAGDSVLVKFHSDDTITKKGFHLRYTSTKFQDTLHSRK
Test: Cleavage of synthetic procollagen cleavage-site peptides by active C-proteinase
Format: biochemical
Settings: for Cleavability: Table 1, cleavability of peptides resembling the C-proteinase cleavage site of procollagen; for cleavability by C-proteinase: truncated and extended peptides compared with original peptide SEQ ID NO:6
From the text: A variety of short peptides comprising five (5) to twelve (12) amino acids was synthesized and tested for cleavage by active C-proteinase.
First, four peptides, each comprising eight (8) amino acids corresponding to the cleavage region of several procollagens were synthesized. See, TABLE 1, SEQ ID NO:3, SEQ ID NO:4, SEQ ID NO:5, and SEQ ID NO:6. All four peptides were examined for cleavability by C-proteinase. […] Indeed, one would expect that recognition of the cleavage site depends on structural requirements which cannot be resembled by only eight (8) amino acids.
Second, a series of peptides was prepared based on the sequence of original peptide SEQ ID NO:6. Specifically, peptides were designed resembling the core of the peptide comprising SEQ ID NO:6, but with truncations of one, two and three amino acids from either side of the cleavage site. A further peptide was synthesized resembling two additional amino acids at both the N-terminus and C-terminus of the original peptide comprising SEQ ID NO:6.
Removing two or more amino acids from either end of the original SEQ ID NO:6 sequence, however, yielded a non-cleavable peptide (SEQ ID NOS:9, 10, 12, 13).

Row | SMILES | Cleavability | cleavability by C-proteinase
1 | CC(=O)N1CCC[C@H]1C(=O)N[C@@H](Cc1ccc(O)cc1)C(=O)N[C@@H](Cc1ccc(O)cc1)C(=O)NCC(=O)N[C@@H](CC(=O)O)C(=O)N[C@@H](CCC(=O)O)C(=O)N1CCC[C@H]1C(N)=O [SEQ ID NO:8, Ac-PYYG-DEP-NH2] (Ac-PYYGDEP-NH2) | excellent | did not drastically alter its cleavability
2 | CC(=O)N1CCC[C@H]1C(=O)N[C@@H](Cc1ccc(O)cc1)C(=O)N[C@@H](Cc1ccc(O)cc1)C(=O)NCC(=O)N[C@@H](CC(=O)O)C(=O)N[C@@H](CCC(=O)O)C(N)=O [SEQ ID NO:9, Ac-PYYG-DE-NH2] (Ac-PYYGDE-NH2) | none | non-cleavable
3 | CC(=O)N1CCC[C@H]1C(=O)N[C@@H](Cc1ccc(O)cc1)C(=O)N[C@@H](Cc1ccc(O)cc1)C(=O)NCC(=O)N[C@@H](CC(=O)O)C(N)=O [SEQ ID NO:10, Ac-PYYG-D-NH2] (Ac-PYYGD-NH2) | none | non-cleavable
4 | CSCC[C@H](NC(=O)[C@@H]1CCCN1C(=O)[C@H](CCC(=O)O)NC(=O)[C@H](CC(=O)O)NC(=O)CNC(=O)[C@H](Cc1ccc(O)cc1)NC(=O)[C@H](Cc1ccc(O)cc1)NC(C)=O)C(N)=O [SEQ ID NO:11, Ac-YYG-DEPM-NH2] (Ac-YYGDEPM-NH2) | excellent | did not drastically alter its cleavability
5 | CSCC[C@H](NC(=O)[C@@H]1CCCN1C(=O)[C@H](CCC(=O)O)NC(=O)[C@H](CC(=O)O)NC(=O)CNC(=O)[C@H](Cc1ccc(O)cc1)NC(C)=O)C(N)=O [SEQ ID NO:12, Ac-YG-DEPM-NH2] (Ac-YGDEPM-NH2) | none | non-cleavable
6 | CSCC[C@H](NC(=O)[C@@H]1CCCN1C(=O)[C@H](CCC(=O)O)NC(=O)[C@H](CC(=O)O)NC(=O)CNC(C)=O)C(N)=O [SEQ ID NO:13, Ac-G-DEPM-NH2] (Ac-GDEPM-NH2) | none | non-cleavable
